Here are results for twelve compounds from ChEMBL document CHEMBL1129709, “(Hydroxyethyl) sulfonamide HIV-1 Protease inhibitors: Identification of the 2-methylbenzoyl moiety at P-2” (Bioorg Med Chem Lett, 1996).

The subject of data set [1] is CCRF-CEM. Kind of data set: Antiviral activity was evaluated against HIV-IIIB strain of HIV-1 in CEM cell culture assay. Type of data set: functional, cell-based. To be noted: Homo sapiens.
The target of data set [2] is T1, Human immunodeficiency virus type 1 protease (Human immunodeficiency virus 1, UniProt Q72874). Nature of the data set: Inhibitory activity against HIV-1 protease in spectrofluorimetric assay.
Data set [3] in a line: Half-life was evaluated in rats. Type of data set: ADME, organism-based. To be noted: rat, in vivo.
Data set [4] is described as follows: Bioavailability in rat. To be noted: in vivo. It is filed as ADME, organism-based.
In data set [5] the test system is CCRF-CEM. Nature of the data set: Toxic dose was evaluated against HIV-IIIB strain of HIV-1 in CEM cell culture assay. To be noted: Homo sapiens, CEM cells; read-out: TD50 (the source's name).
Data set [6] can be described thus: Maximum concentration was evaluated in rats. Type of data set: ADME, organism-based. To be noted: rat, in vivo.
Data set [7] concerns the target T1, Human immunodeficiency virus type 1 protease. Kind of data set: Inhibitory activity was evaluated against recombinant HIV-1 protease using spectrofluorimetric assay.

As usually defined, the EC50 is the concentration needed to bring the measured effect to its halfway point. A low value points to an effect from little substance. For orientation: IC50 means the concentration that gives 50% inhibition. What is called half-life is the time needed for the level to fall by half in the phase considered. Higher therefore signals slow decline. The term bioavailability denotes dose-corrected exposure relative to a reference, in per cent. Higher therefore signals much systemic uptake. For orientation: Cmax means the highest concentration seen after dosing.

In the data set on CCRF-CEM [1], `COc1ccc(S(=O)(=O)N(CC(C)C)C[C@@H](O)[C@H](Cc2ccccc2)NC(=O)c2ccccc2C)cc1` yielded an EC50 of 0.2 µM.

The compound `COc1ccc(S(=O)(=O)N(CC(C)C)C[C@@H](O)[C@H](Cc2ccccc2)NC(=O)c2ccc(N)cc2C)cc1` registered an EC50 in the data set with CCRF-CEM [1] of 0.018 µM.

The compound `COc1ccc(S(=O)(=O)N(CC(C)C)C[C@@H](O)[C@H](Cc2ccccc2)NC(=O)c2cccc(C)c2)cc1` gave a concentration for half-maximal inhibition (IC50) in data set [2] of 0.027 µM.

`COc1ccc(S(=O)(=O)N(CC(C)C)C[C@@H](O)[C@H](Cc2ccccc2)NC(=O)c2cccc(O)c2C)cc1` gave a half-life in data set [3] of 1 h. The compound further came in with a half-maximal effective concentration (EC50) in the data set with CCRF-CEM [1] of 0.007 µM. This compound returned a bioavailability in data set [4] of 12%. In addition, in the data set with CCRF-CEM [5], the CC50 is > 10 µM. For the same compound, the highest level in data set [6] (Cmax) was 270 ng/mL.

Turning to `COc1ccc(S(=O)(=O)N(CC(C)C)C[C@@H](O)[C@H](Cc2ccccc2)NC(=O)c2ccccc2O)cc1`, the IC50 in data set [2] worked out at 0.9 µM.

Consider `COc1ccc(S(=O)(=O)N(CC(C)C)C[C@@H](O)[C@H](Cc2ccccc2)NC(=O)c2cc(O)ccc2C)cc1`, for which, in data set [7], the 50% inhibitory concentration (IC50) was 0.04 µM. In addition, the CC50 in the data set with CCRF-CEM [5] is > 10 µM.

Consider `COc1ccc(S(=O)(=O)N(CC(C)C)C[C@@H](O)[C@H](Cc2ccccc2)NC(=O)c2cccc(N)c2C)cc1`, for which, in data set [3], the half-life is 1 h. Besides, the EC50 in the data set on CCRF-CEM [1] came out at 0.018 µM. This compound also came in with a bioavailability in data set [4] of 54%. In the data set on CCRF-CEM [5], the CC50 is > 10 µM. In data set [6], this compound registered a Cmax of 1800 ng/mL.

For the compound `COc1ccc(S(=O)(=O)N(CC(C)C)C[C@@H](O)[C@H](Cc2ccccc2)NC(=O)c2ccc(C)cc2)cc1`, the IC50 in data set [2] is 0.015 µM.

Compound `COc1ccc(S(=O)(=O)N(CC(C)C)C[C@@H](O)[C@H](Cc2ccccc2)NC(=O)c2ccc(O)cc2C)cc1` displayed a half-maximal effective concentration (EC50) in the data set with CCRF-CEM [1] of 0.009 µM. For the same compound, the 50% inhibitory concentration (IC50) in data set [7] came to 0.005 µM. Further, in the data set on CCRF-CEM [5], the CC50 was > 10 µM.

On to `COc1ccc(S(=O)(=O)N(CC(C)C)C[C@@H](O)[C@H](Cc2ccccc2)NC(=O)c2ccccc2C(C)C)cc1`, for which the concentration for half-maximal inhibition (IC50) in data set [2] was determined as 0.049 µM.

As to `COc1ccc(S(=O)(=O)N(CC(C)C)C[C@@H](O)[C@H](Cc2ccccc2)NC(=O)c2cc(N)ccc2C)cc1`, the concentration for a half-maximal effect (EC50) in the data set on CCRF-CEM [1] worked out at 0.082 µM. Also, the CC50 in the data set with CCRF-CEM [5] was > 10 µM.

With `COc1ccc(S(=O)(=O)N(CC(C)C)C[C@@H](O)[C@H](Cc2ccccc2)NC(=O)c2ccccc2C(F)(F)F)cc1`, the IC50 in data set [2] turned out to be 0.037 µM.
